The values below come from patent US6998413B1, “Treatment of neoplasms with yujungamycins” (priority 1999, dated 2006).

“Also recorded” adds a separate entry of the source.

Data set [1] concerns Poly [dG] Poly [dC]. As to the kind of experiment: Alkylation of DNA by reduced PBIs. The note with it: reduced PBI (H2, Pd on carbon), pH 7.4 tris buffer, 30° C., 24 h. In kind it is biochemical. As for the experimental part: (§1) Alkylation of DNA by Reduced PBIs. To a mixture of 1–2 mg of DNA (poly[dA]. poly[dT], poly[dG]. poly[dC], poly[dA-dT]. poly[dT-dA]) in 2.0 mL of 0.05 M of pH 7.4 tris buffer and 2 mg of Pd on carbon was added a five-to-one base pair equivalent amount of the PBI dissolved in 0.5 mL of dimethylsulfoxide. The resulting solution was degassed under argon for 30 min., after which the mixture was purged with H2 for 10 min. The solution was then purged with argon for 10 min. and the placed in a 30° C. bath for 24 h. The reaction was opened to the air and the catalyst was removed with a Millex-PF […] syringe filter. The filtrate was adjusted to 0.3M acetate with a 3M stock solution of pH 5.1 acetate and the diluted with two volumes of ethanol. The mixture was chilled at −20° C. for 12 h and the DNA pellet collected by centrifuging at 12,000 g for 20 min. The pellet was redissolved in water and then precipitated and centrifuged again. The resulting pellet was suspended in ethanol, centrifuged, and dried.

In data set [2] the test system is Poly [dA] Poly [dT]. As to the kind of experiment: Alkylation of DNA by reduced PBIs. In kind it is biochemical. The note with it: reduced PBI (H2, Pd on carbon), pH 7.4 tris buffer, 30° C., 24 h. As for the experimental part:
as §1

The test system of data set [3] is DT-diaphorase. As to the kind of experiment: DT-Diaphorase reduction kinetics. In kind it is biochemical. To be noted: pH 7.4 tris.HCl, anaerobic, 30° C., 0.3 mM NADH, 14.5 nM enzyme active sites. As for the experimental part:
DT-Diaphorase Reduction Kinetics Studies. Kinetic studies were carried out in 0.05 M pH 7.4 tris.HCl buffer, under anaerobic conditions, employing Thunberg cuvettes. A 2 mM stock solution of the appropriate PBI or APBI was prepared in dimethyl sulfoxide (DMSO). To the top port was added the quinone stock and to the bottom port was added DT-diaphorase and NADH in the tris buffer. The top and bottom ports were purged with argon for 20 minutes and equilibrated to 30° C. The ports were then mixed and the reaction followed at 296 nm for 25 minutes to obtain initial rates. The concentrations upon after mixing were 0.3 mM NADH, 1 to 20×10^-5 M quinone, and 14.5 nM (based on flavin) of enzyme active sites. The value of Δε was calculated from the initial and final absorbance values for complete quinone reduction, usual value for Δε is 6000 to 8000 M−1 cm−1. The value of Δε was used to calculate Vmax in M sec-1. The results were fitted to a Lineweaver-Burke plot from which kcat/Km values were calculated based on 14.5 nM of active sites.

Data set [4] deals with cancer cell lines. As to the kind of experiment: Cytotoxicity (−log LC50) against cancer cell lines by cancer type. In kind it is cell-based. To be noted: for cytotoxicity (in words): cancer cell lines, FIG. 2 and FIG. 4. From the text:
Each −log LC50 value is the average of up to eight values.
FIG. 4. illustrates the plots of −Log LC50 versus cancer type for S(−)-1, 2, 3. Each cancer type represents the average of six to eight different cancer cell lines.

Data set [5] has as its system Human tumor cells. Nature of the data set: Hollow fiber assay (in vivo screen, National Cancer Institute). To be noted: for Total Score (hollow fiber score): 12 cell lines × 2 sites × 2 doses, highest possible score 96; for Intraperitonal Score: fibers implanted intraperitoneally; for Intraperitonal Score / Subcutaneous Score: IP dosing QD×4, high and low dose, score of two per test with % T/C of 50 or less; for Subcutaneous Score: fibers implanted subcutaneously; for Cancer cell line types sensitive: hollow fiber assay. Here is the method: Hollow fiber assays are carried out in the following way. Human tumor cells are cultivated in polyvinylidene fluoride hollow fibers, and a sample of each cell line is implanted into each of two physiological compartments (intraperitoneally and subcutaneously). Mice are treated with either a high or a low dose using a QD×4 schedule (four daily treatments) administered intraperitoneally. Altogether, twelve cell lines are studied resulting in 48 possible test combinations (12 cell lines×2 sites×2 doses). […] These compounds are covered by two patents. (Skibo, E. B. and Islam, I. Synthesis and Elucidation of Azamitosene and Iminoazamitosene. U.S. Pat. No. 5,015,742 1991; Skibo, E. B., Islam, I. and Alberts, D. S., Antineoplastic Agents and Methods of Using the Same. U.S. Pat. No. 5,246,955, 1993).

The subject of data set [6] is B-16 melanoma. As to the kind of experiment: B-16 melanoma model (syngraft) in C57/bl mice. In kind it is in vivo. The note with it: 1 and 3 mg/Kg IP on days 1, 5, and 9 after tumor implantation into front flank muscle. As for the experimental part: These compounds were studied at two dose levels: 1 and 3 mg/Kg IP on days 1, 5, and 9 after tumor implantation into the front flank muscle. Shown in the bar graph is the area under the tumor versus time curve plotted against dose for each enantiomer.

Regarding “3-Amino-6-azindinyl-2,3-dihydro-7-methyl-1H-pyrrolo[1,2-a]benzimidazole-5,8-dione [R(+)-B]”, the “Percentages of PBI Incorporation into DNA” value (“Percentages” for short) is 105% in data set [1] (listed as R(+)−B) and 60% in data set [2] (listed as R(+)−B). In data set [3], the Vmax was determined as 14.6 nM/s.

On to “3-Amino-6-azindinyl-2,3-dihydro-7-methyl-1H-pyrrolo[1,2-a]benzimidazole-5,8-dione [S(−)-B]”, for which the “Percentages” value in data set [1] (listed as S(−)−B) turned out to be 52%; in data set [2] (listed as S(−)−B) it was 186%.

Regarding “3-Amino-6-azindinyl-2,3-dihydro-7-methyl-1H-pyrrolo[1,2-a]benzimidazole-5,8-dione [Yujungamycin B]”, the “cytotoxicity (in words)” value in data set [4] was “high potency”; in data set [4] (listed as 2) it was “high cytotoxicity against non-small-cell lung, central nervous system, melanoma, ovarian, and renal cancers”. The “change in cytotoxicity, 3-hydroxy changed to 3-amino” value in data set [4] (relative to the 3-hydroxy derivative) is listed as “˜million-fold change in cytotoxicity”.

Consider “3-Carbamido-6-aziridinyl-2,3-dihydro-7-methyl-1H-pyrrolo[1,2-a]benzimidazole-5,8-dione [R(+)-C]”, for which the “Percentages” value is reported as 17% in data set [1] and 31% in data set [2]. The maximum rate (Vmax) in data set [3] worked out at 39.3 nM/s.

Regarding “3-Carbamido-6-aziridinyl-2,3-dihydro-7-methyl-1H-pyrrolo[1,2-a]benzimidazole-5,8-dione [S(−)-C]”, the “Percentages” value in data set [1] amounted to 12.4%; in data set [2] it was 70%. Besides, the maximal velocity (Vmax) in data set [3] was found to be 21.8 nM/s.

Consider `CC(=O)OC1CCN2C1=NC1C(=O)C(N3CC3)=C(C)C(=O)C12` (centres unmarked) [PBI-A], for which, in data set [5], the “Total Score (hollow fiber score)” value is reported as 48; the “Intraperitonal Score” value stood at 40; the “Subcutaneous Score” value is 8; the “Cancer cell line types sensitive” value is “melanoma, NSC lung cancer, breast cancer, and ovarian cancer”. Also, the “activity in the hollow fiber assay / in vivo” value in data set [5] is listed as “active in the hollow fiber assay”.

Turning to `CC1=C(N2CC2)C(=O)c2nc3n(c2C1=O)CCC3OC(N)=O` (centres unmarked) [PBI-B], in data set [5], the “Total Score (hollow fiber score)” value was 30; the “Intraperitonal Score” value was 24; the “Subcutaneous Score” value came to 6; the “Cancer cell line types sensitive” value is “melanoma, NSC lung cancer, breast cancer, and ovarian cancer”. Further, the “activity in the hollow fiber assay / in vivo” value in data set [5] was “active in the hollow fiber assay”.

Turning to `CC(=O)NC1CCn2c1nc1c2C(=O)C(C)=C(N2CC2)C1=O` (stereo not drawn) [S(−)-A], in data set [5], the “Total Score (hollow fiber score)” value was found to be 52, the “Intraperitonal Score” value was determined as 38 and the “Subcutaneous Score” value is recorded as 14. In data set [1], the “Percentages” value is recorded as 6.6%. In addition, the “Percentages” value in data set [2] stood at 17.4%. For the same compound, the Vmax in data set [3] is 47.6 nM/s. Moreover, the “activity in B-16 melanoma model (area under the tumor versus time curve)” value in data set [6] (listed as S(−) Yujungamycin A) is on record as “failed to show much difference in activity between the enantiomers; also recorded: no apparent differences between the enantiomers”. Moreover, the “activity in B-16 melanoma model (area under the tumor versus time curve)” value in data set [6] (listed as S(−)-Yujungamycin A) is given as “activity”.

The term Vmax denotes the rate approached at saturating substrate.
